# Experimental data as given in patent US12492378B2, “Stepwise method of producing various types of cells from pluripotent stem cells” (Kyoto University, priority 2018, dated 2025).
# Key:
# PAX3-GFP iPS cells = test: Induction of presomitic mesoderm cells (PSM) from human iPS cells, FACS for DLL1 and PAX3-GFP; assay type: cell-based; conditions: single factor, 10 μM CHIR99021, CDM basal medium, 4 days
# Experimental: Fluorescence-activated cell sorting (FACS) was performed by AriaII (BD) according to the manufacturer's protocol. Intracellular flow cytometry analysis was also performed by AriaII (BD) according to the manufacturer's protocol. Briefly, cells were fixed and permeabilized prior to the antibody staining. The expression rate of each differentiation marker was calculated by comparing that of iPSCs or induced somite cells. To minimize the effect of growth factors secreted from feeder cells or contained in a culture medium, SNL feeders were removed from an iPS cell culture, and human iPS cells were seeded onto matrigel (BD, Bedford, MA, USA) coated dishes (1.3×10^6 cells/10-cm dish). The iPS cells were cultured under feeder-free condition with […]1 medium (STEMCELL Technology, Vancouver, Canada) for 3 days. The iPS cells were then cultured in CDM basal medium supplemented with one of four factors or the appropriate combination of the four factors for 4 days (FIG. 2B). The added factors are as follows. […] To detect the induction efficiency of presomitic mesoderm cells, the cell population positive for DLL1, a surface marker for a presomitic mesoderm cell and the posterior portion of somite, and negative for PAX3-GFP, showing a newly formed and segmented somite cell, were detected by FACS (FIG. 2C). […]
# [1] = tested on: DLL1+ presomitic mesoderm cells; test: Induction of somite cells (SM) from presomitic mesoderm cells; assay type: cell-based, human; conditions: for PAX3-GFP+ cells: four days culture, FACS
# Experimental: IPS cells were cultured in SCDF condition of Example 1 for 4 days, and a total of 1.0×10^5 DLL1^+ presomitic mesoderm cells sorted by FACS were seeded onto one well of a matrigel-coated 12-well plate and subsequently underwent the induction of somite cells (FIG. 3A). The induction of somite cells was carried out for 4 days in CDM basal medium supplemented with SB431542 and/or 5 μM CHIR99021. The medium was changed at day 3 of the induction of somite cells. The expression of PAX3-GFP was used as a somite cell marker. The added factors and their concentrations are as follows: • S10: SB431542 10 μM • C1: CHIR99021 1 μM • C5: […]20: FGF2 20 ng/ml • […]: IWR1 10 μM
# dermomyotome cells = test: Induction of myotome cells (MYO) from dermomyotome cells; assay type: cell-based, human; conditions: 5 μM CHIR99021, 30 days; number of MYOD- and MYOG-positive cells
# Experimental: We next tried to induce myotome cells directly from dermomyotome cells obtained in the above (3). The medium of the dermomyotome cell culture obtained in (3) was replaced with CDM basal medium supplemented with 5 μM of CHIR99021, and the cell culture was further cultured. The medium was changed every 3 days, and the culture was performed for 30 days. A small amount of cultured cells was collected every 6 days, and the expression of myogenic markers MYOD, MYOG and PAX7 was examined over time. Induction of the myogenic markers was found 18 to 30 days after the replacement of the medium. On the other hand, the expression of the dermomyotome cell marker ALX4 was decreased in a time dependent manner (FIG. 4D). The expression of MYOD and MYOG was also determined by immunocytochemistry. The induction efficiency from dermomyotome cells into myotome cells was estimated at approximately 22% based on the number of MYOD- and MYOG-positive cells.
# [2] = tested on: somite cell-derived mesenchymal stromal cells induced from FOP-iPS cells; test: 2D chondrogenic induction of FOP-iPS cell-derived mesenchymal stromal cells; assay type: cell-based, human; conditions: 5 days
# Experimental: (§1) The GAG content in pellets was quantified with the Blyscan™ Glycosaminoglycan Assay Kit (Biocolor Ltd., Belfast, UK). The DNA content was quantified using the PicoGreen™ dsDNA Quantitation Kit (Invitrogen).
# (§2) A total of 1.5×10^5 induced mesenchymal stromal cells or sclerotome cells were suspended in 5 μL of chondrogenic basal. medium (DMEM: F12 (Invitrogen), 1% (v/v) ITS+Premix (BD Biosciences, San Jose, CA, USA), 0.1 μM dexamethasone (WAKO), 0.17 mM L-Ascorbic acid 2-phosphate sesquimagnesium salt hydrate (Sigma), 0.35 mM Proline (Sigma), 0.15% (v/v) glucose (Sigma), 1 mM Na-pyruvate, 2 mM GlutaMax (Invitrogen) and 1% (v/v) FBS), and subsequently transferred to one well of a fibronectin-coated 24-well plate (BD Biosciences). After one hour of incubation at 37° C. in 5% CO2, cells formed micromass.
# (§3) Then, the micromass was cultured in 1 ml of chondrogenic basal medium supplemented with 10 ng/ml BMP7 (R&D) and 10 ng/ml TGFβ3 (R&D) with or without 30 ng/ml Activin A (R&D) at 37° C. in 5% CO2 for 5 days.
# The micromass induced from somite cell-derived mesenchymal stromal cells from FOP-iPS cells was also cultured in 1 mL of chondrogenic basal medium supplemented with 30 ng/ml Activin A (R&D) with/without 10 nM R667 (Toronto Research Chemicals, Toronto, ON, Canada) or 10 nM Rapamycin (MedChem Express, Monmouth Junction, NJ, USA).
# (§4) Differentiation properties of obtained cells were analyzed by RT-qPCR analysis, glycosaminoglycans (GAG) quantification and Alcian Blue staining. Briefly, induced cells were fixed for 30 minutes with 4% paraformaldehyde (WAKO), rinsed with PBS, and then stained overnight with Alcian Blue solution (1% Alcian Blue, pH1) (MUTO PURE CHEMICAL CO., LTD, Tokyo, Japan).
# heterotopic ossification = conditions: reported, Hino et al., 2017; cited from earlier work
# [3] = tested on: somite cell-derived sclerotome cells; test: 2D chondrogenic induction of FOP-iPS cell-derived sclerotome cells; assay type: cell-based, human; conditions: 30 ng/ml Activin A, 5 days
# Experimental: as §1, §2, §3, §4
molecule,measurement,setting,value
"Cc1c[nH]c(-c2cnc(NCCNc3ccc(C#N)cn3)nc2-c2ccc(Cl)cc2Cl)n1 [CHIR99021, 6-[2-[4-(2,4-Dichlorophenyl)-5-(4-methyl-1H-imidazol-2-yl)pyrimidin-2-ylamino]ethylamino]pyridine-3-carbonitrile]",DLL1+/PAX3-GFP- cells (induction efficiency),PAX3-GFP iPS cells,56.3±3.1%
same,PAX3-GFP+ cells,[1]; 5 μM CHIR99021 (C5),70.7±0.1%
same,PAX3-GFP+ cells,[1]; 10 μM CHIR99021 (C10),0.3±0.0%
same,PARAXIS and MEOX1 expressions,"[1]; S10C5 compared with S10I10 or S10, 4 days, RT-qPCR",highly induced
same,PARAXIS-expressing cells,[1]; immunohistochemistry using anti-PARAXIS (TCF15) antibody,found
same,induction efficiency from dermomyotome cells into myotome cells,dermomyotome cells,approximately 22%
CC1(C)CCC(C)(C)c2cc(Cn3cccn3)c(/C=C/c3ccc(C(=O)O)cc3)cc21 [R667],enhanced chondrogenesis by Alcian Blue staining,"[2]; 10 nM, with 30 ng/ml Activin A",inhibition of the enhanced chondrogenesis was also confirmed
same,enhancement of glycosaminoglycan (GAG) production,"[2]; 10 nM, with 30 ng/ml Activin A, GAG/DNA",significantly inhibited
same,enhancement of chondrogenic marker expressions,"[2]; 10 nM, with 30 ng/ml Activin A, RT-qPCR",significantly inhibited
same,inhibition of heterotopic ossification,heterotopic ossification,potent inhibitors
NC(=O)c1ccc(-c2nc(-c3ccc4c(c3)OCO4)c(-c3ccccn3)[nH]2)cc1 [SB431542],PAX3-GFP+ cells,[1]; 10 μM SB431542 (S10),52.1±0.8%
"Activin A: a stimulator of mutant ACVR1; R&D (protein, UniProt P08476 311-426, looked up, Inhibin beta A chain, a stimulator of mutant ACVR1; R&D) Inhibin beta A chain: GLECDGKVNICCKKQFFVSFKDIGWNDWIIAPSGYHANYCEGECPSHIAGTSGSSLSFHSTVINHYRMRGHSPFANLKSCCVPTKLRPMSMLYYDDGQNIIKKDIQNMIVEECGCS","chondrogenesis (chondrogenic markers, GAG production) in FOP-iPS-derived vs resFOP-iPS-derived cells",[2]; 30 ng/ml Activin A,enhancement of the chondrogenesis was observed
same,"chondrogenic marker expressions, GAG production and Alcian Blue staining in FOP-iPS-derived vs resFOP-iPS-derived cells",[3],no difference
